# Earlier results in PMC8513935.
# Experiment: experimental, compiled by the authors from the literature (the ESI cites the sources)
# Details: Hexadecane, 25 C
row,"log K of transfer, gas to solvent",Structure (SMILES)
1,3.23 log10 K,CC1CCCCN1 (centres unmarked)
2,3.64 log10 K,Fc1ccccc1Cl
3,4.37 log10 K,O=C1CCCCCC1
4,3.96 log10 K,CCCCCCC(C)C
5,3.23 log10 K,CC1CCCNC1 (centres unmarked)
6,3.84 log10 K,CCNC(C)=O
7,4.93 log10 K,C1C2CC3CC1CC(C2)C3
8,3.55 log10 K,Fc1ccc(Cl)cc1
9,3.04 log10 K,CCCC(C)CC (centres unmarked)
10,4.98 log10 K,O=C1CCCCCCC1
11,5.62 log10 K,CCCCN(C=O)CCCC
12,3.98 log10 K,Cc1ccc(C)nc1
13,5.51 log10 K,C=CCCCCCCCCCC
14,3.24 log10 K,CCCC(C)(C)O
15,4.62 log10 K,CC(=O)C1CCCCC1
16,4.01 log10 K,CCCSCCC
17,4.58 log10 K,CCCCNC(C)=O
18,4 log10 K,Cc1ccnc(C)c1
19,1.59 log10 K,CCOC
20,3.24 log10 K,OC1CCCC1
21,3.83 log10 K,CN1CCCC1=O
22,3.53 log10 K,Fc1cccc(Cl)c1
23,3.57 log10 K,CC(C)CCC(C)(C)C
24,7.13 log10 K,CCCCCCCCCCCCCO
25,3.86 log10 K,COC1CCCCC1
26,3.51 log10 K,CCCCC(C)CC (centres unmarked)
27,4.31 log10 K,CCCC1CCCCC1
28,3.68 log10 K,CCCCC(C)(C)O
29,3.64 log10 K,C[C@H]1CC[C@H](C)CC1
30,4.6 log10 K,CCCCCC1CCCC1

row,Structure (SMILES),"log K of transfer, gas to solvent"
1,OC1CCCCCCC1,5.05 log10 K
2,C=CCCCCCCCCC,5.02 log10 K
3,CC(=O)CC(C)C,3.09 log10 K
4,C1CCSC1,3.06 log10 K
5,CCCF,1.25 log10 K

# Same assay, conditions: Propanone, 25 C
row,"log K of transfer, gas to solvent",Structure (SMILES)
1,4.6 log10 K,OC1CCCC1

# Same assay, conditions: Water, 25 C
row,"log K of transfer, gas to solvent",Structure (SMILES)
1,3.15 log10 K,CC1CCCCN1 (centres unmarked)
2,0.72 log10 K,Fc1ccccc1Cl
3,3.42 log10 K,O=C1CCCCCC1
4,-2.15 log10 K,CCCCCCC(C)C
5,3.16 log10 K,CC1CCCNC1 (centres unmarked)
6,6.72 log10 K,CCNC(C)=O
7,0.12 log10 K,C1C2CC3CC1CC(C2)C3
8,0.63 log10 K,Fc1ccc(Cl)cc1
9,-1.99 log10 K,CCCC(C)CC (centres unmarked)
10,3.38 log10 K,O=C1CCCCCCC1
11,4.34 log10 K,CCCCN(C=O)CCCC
12,3.46 log10 K,Cc1ccc(C)nc1
13,-1.87 log10 K,C=CCCCCCCCCCC
14,3.25 log10 K,CCCC(C)(C)O
15,3.28 log10 K,CC(=O)C1CCCCC1
16,0.94 log10 K,CCCSCCC
17,6.57 log10 K,CCCCNC(C)=O
18,3.57 log10 K,Cc1ccnc(C)c1
19,1.54 log10 K,CCOC
20,4.03 log10 K,OC1CCCC1
21,5.74 log10 K,CN1CCCC1=O
22,0.65 log10 K,Fc1cccc(Cl)c1
23,-2.15 log10 K,CC(C)CCC(C)(C)C
24,2.38 log10 K,CCCCCCCCCCCCCO
25,2.43 log10 K,COC1CCCCC1
26,-2.18 log10 K,CCCCC(C)CC (centres unmarked)
27,-1.32 log10 K,CCCC1CCCCC1
28,3.06 log10 K,CCCCC(C)(C)O
29,-1.4 log10 K,C[C@H]1CC[C@H](C)CC1
30,-1.87 log10 K,CCCCCC1CCCC1

row,Structure (SMILES),"log K of transfer, gas to solvent"
1,OC1CCCCCCC1,3.81 log10 K
2,C=CCCCCCCCCC,-1.75 log10 K
3,CC(=O)CC(C)C,2.24 log10 K
4,C1CCSC1,1.66 log10 K
5,CCCF,-0.24 log10 K
